Measured values reported in paper PMC11947619, “Molecular mechanism of Mad2 conformational conversion promoted by the Mad2‐interaction motif of Cdc20” (Protein Science : A Publication of the Protein Society, 2025).
One block for each compound: values may come before it. Residues, ends and D or L forms follow the SMILES beside them.

Biological target: T1, O‐Mad2^R133A (Homo sapiens, UniProt Q13257, R133A)
T1 construct: unable to collect equivalent data for full‐length O‐Mad2^R133A; His6-DoubleStrep-TEV (N); made in house
Test: Time-resolved NMR: O-Mad2 to C-Mad2 conversion of O-Mad2^R133A with MIM peptides
Assay type: biochemical
Conditions: 100 μM O-Mad2^R133A, 25°C
Method: FIGURE 2 NMR fingerprinting of Mad2. (a) Structural orientations of Trp75 (on the αB helix) and Trp167 (on the “safety‐belt”) in Mad2 produce distinct indole NH resonances. […] NMR spectra for O‐Mad2^R133A and “empty” C‐Mad2^L13A/R133A and C‐Mad2^R133A:Cdc20^MIM‐111‐138 are from Fischer et al. ([2022]) (c) Mad2 conversion rates vary with different MIM peptides. Conversion was traced over 24 h at 25°C using the Trp75 and Trp167 side‐chain resonances as reporters. MIM peptides were added at two‐fold molar excess to Mad2 (100 μM). Each spectrum required 12 min of acquisition time, therefore the 15 min time‐points represent the earliest spectra in the time‐resolved series. The schematics show the conformation of Mad2 as indicated by the tryptophan side‐chain resonances. A black tick marks when conversion is considered complete. NMR data for O‐Mad2^R133A with and without Cdc20^MIM‐111‐138 shown are from Fischer et al. ([2022]). In the case of full‐length Cdc20, the MIM sequence is sequestered by an auto‐inhibitory intramolecular interaction within Cdc20 itself, which prevents it from being readily accessible for binding to C‐Mad2 (Piano et al., [2021]). Conversely, isolated MIM peptides lack this auto‐inhibitory mechanism, allowing them to bind directly to C‐Mad2 without obstruction.
To understand whether Mad2 conversion times are modulated by different C‐Mad2 ligands, we used time‐resolved NMR to determine the conversion time of 100 μM O‐Mad2^R133A at 25°C. The indole NH resonances of Trp75 and Trp167 were used as reporters (Figure 2b). […] In contrast, conversion took ~24 h in the absence of Cdc20^MIM‐111‐138 peptide (Fischer et al., [2022]) (Figures 2c and S4b). […] Other MIM peptides also accelerated the O‐Mad2 to C‐Mad2 conversion. […] In “empty” C‐Mad2, the β7/β8 hairpin is displaced to expose the β6 strand for pairing with the MIM peptide (Luo et al., [2004]) (Figure S3a).
Mad2 constructs were expressed in BL21 Star (DE3) cells (Thermo Fisher Scientific), co‐transformed with a pRARE plasmid (Merck). Uniformly labeled proteins were expressed in M9 minimal media (6 g/L Na2HPO4, 3 g/L KH2PO4, 0.5 g/L NaCl) supplemented with 1.7 g/L yeast nitrogen base without NH4Cl and amino acids (Sigma Y1251). 1 g/L ^15NH4Cl and 4 g/L glucose were supplemented for ^15N labeling. For ^13C/^15N double‐labeled samples, unlabeled glucose was replaced with 3 g/L ^13C‐glucose. Protein expression was induced with 0.4 mM IPTG at 16°C overnight. All samples were purified as previously described (Luo & Yu, [2005]; Mapelli et al., [2007]) and all O‐Mad2 variants were kept at 4°C during purification to prevent conversion to C‐Mad2. Prior to all NMR experiments, proteins were dialyzed into 20 mM HEPES, pH 7.0, 100 mM NaCl, 1 mM TCEP. ^13C/^15N‐labeled samples were used for backbone assignment, and all other experimental data were acquired on ^15N‐labeled samples. Proteins were kept on ice before NMR experiments to ensure all O‐Mad2 remained in the open state. For “bound” C‐Mad2, MIM peptides were added in 1:2 molar excess to ensure complete conversion.
All peptides were synthesized by Cambridge Research Biochemicals, UK. Peptides were dialyzed into 20 mM HEPES, pH 7.0, 100 mM NaCl, and 1 mM TCEP for NMR experiments. The sequences for the peptides used in this study are: Cdc20^MIM‐111‐138 ([…]), Cdc20^MIM‐123‐137 (FDVEEAKILRLSGKP), Cdc20^MIM‐123‐152 ([…]), Cdc20^MIM‐138‐152 (QNAPEGYQNRLKVLY), Mad1^MIM‐529‐550 ([…]), and MBP1^MIM (SWYSYPPPQRAV). […]

T1 sequence (Q13257 whole entry R133A): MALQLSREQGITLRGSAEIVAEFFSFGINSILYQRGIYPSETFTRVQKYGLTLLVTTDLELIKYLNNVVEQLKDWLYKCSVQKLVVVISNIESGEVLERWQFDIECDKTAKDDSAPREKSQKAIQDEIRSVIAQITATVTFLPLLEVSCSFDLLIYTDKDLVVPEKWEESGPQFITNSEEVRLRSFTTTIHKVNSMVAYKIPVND

Compound: CC[C@H](C)[C@H](NC(=O)[C@H](CCCCN)NC(=O)[C@H](C)NC(=O)[C@H](CCC(=O)O)NC(=O)[C@H](CCC(=O)O)NC(=O)[C@@H](NC(=O)[C@H](CC(=O)O)NC(=O)[C@@H](N)Cc1ccccc1)C(C)C)C(=O)N[C@@H](CC(C)C)C(=O)N[C@@H](CCCNC(=N)N)C(=O)N[C@@H](CC(C)C)C(=O)N[C@@H](CO)C(=O)NCC(=O)N[C@@H](CCCCN)C(=O)N1CCC[C@H]1C(=O)N[C@@H](CCC(N)=O)C(=O)N[C@@H](CC(N)=O)C(=O)N[C@@H](C)C(=O)N1CCC[C@H]1C(=O)N[C@@H](CCC(=O)O)C(=O)NCC(=O)N[C@@H](Cc1ccc(O)cc1)C(=O)N[C@@H](CCC(N)=O)C(=O)N[C@@H](CC(N)=O)C(=O)N[C@@H](CCCNC(=N)N)C(=O)N[C@@H](CC(C)C)C(=O)N[C@@H](CCCCN)C(=O)N[C@H](C(=O)N[C@@H](CC(C)C)C(=O)N[C@@H](Cc1ccc(O)cc1)C(=O)O)C(C)C [Cdc20^MIM‐123‐152] (H-FDVEEAKILRLSGKPQNAPEGYQNRLKVLY-OH; N-terminus and C-terminus assumed)
Mad2 conversion rate/efficiency, in words (time-resolved NMR, compared with other Cdc20^MIM peptides): more efficient at triggering Mad2 conversion

acceleration of O-Mad2 to C-Mad2 conversion vs absence of MIM peptide (two-fold molar excess peptide, without peptide ~24 h): ~50 fold
Compound: EHQKAWALNLNGFDVEEAKILRLSGKPQ [Cdc20^MIM‐111‐138, Cdc20^MIM peptide spanning Cdc20 residues 111–138]

Compound: QNAPEGYQNRLKVLY [Cdc20^MIM‐138‐152, peptide of Cdc20 residues 138–152]
induction of Mad2 conversion after two hours / binding, in words (time-resolved NMR, two hours): failed to induce Mad2 conversion after two hours, and therefore alone are insufficient to bind Mad2
